# Columns and labels:
# [1] = Wheelbox Test (corrosion of coupons in CO2-purged brine/hydrocarbon); details: actives only, 24 hours at 176° F., brine/LVT 200, 500 ppm acetic acid
# Description: Cleaned and pre-weighed coupons are put into bottles containing a mixture of brine (180 mL), and hydrocarbon (LVT 200, 20 mL) and 500 ppm of acetic acid and the resulting mixture is purged with carbon dioxide. An increasing amount of tested inhibitor (5, 10, 25 and 50 ppm) is added into the bottles, the air space in the bottles is purged with CO2 mixture and immediately capped to avoid air contamination. In addition to those bottles that are dosed with inhibitor, three bottles remain untreated. The complete set of capped test bottles is set on the rotating wheel, and run for 24 hours at 176° F. On conclusion of the test, the bottles are removed and allowed to cool to room temperature. The bottles are then uncapped and the coupons are removed, cleaned, dried and re-weighed. Corrosion rate and protection efficiency are then calculated by comparing the mass loss of inhibited coupons to those of the blanks.
# Comparative test results for representative bis-quaternary ammonium salts prepared according to the methods of Examples 1 and 2 and a commercially available quaternary ammonium salt are shown in Table 1.
# [2] = Field Trial, corrosion rate by electrical resistance MicroCor probes in a production line; details: corrosion inhibitor formulations, gas/oil/brine multiphase flow
# Text: Field corrosion rate data are obtained from a production line in an Alaskan field that is equipped with high sensitivity electrical resistance MicroCor probes (Rohrback Cosasco Systems, Santa Fe Springs, Calif.). The sensing element of the probe, positioned into gas/oil/brine multiphase flow, reads a cumulative metal loss that is transformed into corrosion rate. Once an uninhibited corrosion rate baseline has been established, corrosion inhibitor formulations are incrementally injected upstream of the probe over a period of thirty hours. The resulting drop in corrosion rates are used to calculates protection efficiency and establish the relative rankings of corrosion inhibitor formulations.
# Comparative test results for representative bis-quaternary ammonium salts prepared according to the methods of Examples 1 and 2, a commercially available quaternary ammonium salt and a commercially available alkylbenzyldimethylammonium salt are shown in Table 2.
# [3] = test system: sulfate-reducing bacteria; assay: Biostatic Assay (NACE standard, serial dilution); type: cell-based; details: actives only
# Description: The biostatic properties of representative bis-quaternary ammonium salts are characterized according to the current NACE standard—NACE TMO194094. Viable organisms are cultured from aqueous field samples in iron-rich media purchased from Commercial Microbiology (Houston, Tex.). Stock solutions of the viable organisms in ferrous media are serially diluted in triplicate. Black iron sulfide precipitates indicate micobial growth (of sulfate-reducing bacteria). Clear media solutions indicate complete cell death. Pure media solutions are used as controls and compared against media spiked with 5 to 500 ppm of a test compound. Additives that require increased dilutions to attain complete cell death […], relative to the standard. Those compounds that required fewer dilutions are relatively biostatic.
# Comparative test results for representative bis-quaternary ammonium salts prepared according to the methods of Examples 1 and 2 and commercially available quaternary ammonium salts A and B are shown in Table 3.
Compound,Percent Protection ([1]; 5 ppm inhibitor) [%],Percent Protection ([1]; 10 ppm inhibitor) [%],Percent Protection ([1]; 25 ppm inhibitor) [%],Percent Protection ([1]; 50 ppm inhibitor) [%],Percent Protection ([2]; 3 ppm) [%],Percent Protection ([2]; 6 ppm) [%],Percent Protection ([2]; 11 ppm) [%],Percent Protection ([2]; 22 ppm) [%],Percent Protection ([2]; 44 ppm) [%],log reduction of SRB growth ([3]; 10 ppm) [log],log reduction of SRB growth ([3]; 25 ppm) [log],log reduction of SRB growth ([3]; 100 ppm) [log]
CCCCCCCCCCCC[N+](C)(C)CC(O)C[N+](C)(C)CCCCCCCCCCCC.CCCCCCCCCCCC[N+](C)(C)CC(O)C[N+](C)(C)CCCCCCCCCCCC.O=S(=O)([O-])[O-].[Cl-].[Cl-] [Example 1],65,81,92,91,60.5,87.6,89.8,91.8,98.3,6,6,6
CCCCCCCCC=CCCCCCCCCN(CC(O)C[N+](C)(C)CCCCCCCCCCCC)CC(O)C[N+](C)(C)CCCCCCCCCCCC.[Cl-].[Cl-] (stereo not drawn) [Example 2],21,73,86,89,76.2,96.2,95.3,97.8,98.0,0,6,6

# Reference: patent publication US8999315B2, “Bis-quaternary ammonium salt corrosion inhibitors” (Nalco Company, priority 2004, dated 2015)
